Data taken from ChEMBL document CHEMBL3779823, “Structure of amyloid oligomers and their mechanisms of toxicities: Targeting amyloid oligomers using novel therapeutic approaches” (2016).

Test system: Mus musculus
Assay: Reduction in Abeta oligomers levels in Tg2576 mouse administered for 4 weeks
Assay type: functional

Compound: NS(=O)(=O)c1cc(C(=O)O)c(NCc2ccco2)cc1Cl [FUROSEMIDE]
- inhibition (INH): 30%
